Legend:
CFTR [1] = assay: Whole-cell patch clamp of CFTR currents in HEK293 cells; format: cell-based, human
Description: A critical next step was to determine whether enDUB-U21-rescued mutant CFTR channels are functional. We focused on N1303K and 4326delTC to represent Class II and Class VI mutations, respectively. HEK293 cells expressing WT CFTR display robust forskolin-activated chloride currents that are blocked by CFTR inhibitor (FIGS. 3C and 3D), and not observed in untransfected cells (FIG. 3E). By contrast, cells expressing either N1303K or 4326delTC alone yielded no forskolin-induced currents (FIGS. 3F and 3G) consistent with their limited surface trafficking and status as disease-causing mutants.
For CFTR channel measurements, whole-cell recordings were carried out in HEK293 and FRT cells at room temperature. Internal solution contained (mM): 113 L-aspartic acid, 113 CsOH, 27 CsCl, 1 NaCl, 1 MgCl2, 1 EGTA, 10 TES, 3 MgATP (pH 7.2). External contained (in mM): 145 NaCl, 4 CsCl, 1 CaCl2, 1 MgCl2, 10 glucose, and 10 TES (pH 7.4). I-V curves were generated from a family of step depolarizations (-80 to +80 mV in 20 mV steps from a holding potential of -40 mV). CFTR currents were activated by perfusion with 10 µM forskolin. In experiments utilizing lumacaftor (3 µM), the drug was added for 24 hrs posttransfection and incubated at 37° C. Ivacaftor was used acutely at 5 µM concentration. Currents were sampled at 20 kHz and filtered at 7 kHz. Traces were acquired at a repetition interval of 10 s.

BBS-CFTR-YFP = assay: Flow cytometry assay of CFTR surface density in HEK293 cells; format: cell-based, human
Description: BBS-tagged YFP-CFTR was engineered to enable simultaneous assessment of total channel expression and surface density using flow cytometry, and probed the impact of six distinct mutations previously categorized as Class II (F508del, R560T, N1303K) or Class VI (Q1412X, 4279insA, 4326delTC) mutations, respectively (FIG. 3A). All six mutations markedly impaired channel surface density compared to WT CFTR (FIG. 3B, black bars). […] We utilized a second enDUB (enDUB-U21) that comprises the catalytic component of ubiquitin-specific protease USP21 (FIG. 3A), which removes all ubiquitin linkage types (Faesen et al. 2011).
Cell surface and total ion channel pools were assayed by flow cytometry in live, transfected HEK293 cells as previously described (Kanner et al. 2017; Kanner et al. 2018). Briefly, 48 hrs post-transfection, cells cultured in 12-well plates gently washed with ice cold PBS containing Ca^2+ and Mg^2+ (in mM: 0.9 CaCl2, 0.49 MgCl2, pH 7.4), and then incubated for 30 min in blocking medium (DMEM with 3% BSA) at 4° C. HEK293 cells were then incubated with 1 µM Alexa Fluor 647 conjugated α-bungarotoxin (BTX647; Life Technologies) in DMEM/3% BSA on a rocker at 4° C. for 1 hr, followed by washing three times with PBS (containing Ca^2+ and Mg^2+ ). […]

KCNQ1 = assay: Whole-cell patch clamp of KCNQ1 currents in CHO cells; format: cell-based, human
Description: Whole-cell patch clamp electrophysiology was used to determine functionality of enDUB-O1-rescued KCNQ1 channels.
Chinese hamster ovary (CHO) cells were obtained from ATCC and cultured at 37° C. in Kaighn’s Modified Ham’s F-12K (ATCC) supplemented with 8% FBS and 100 mg/mL of penicillin-streptomycin. CHO cells were transiently transfected with desired constructs in 35 mm tissue culture dishes—KCNQ1 (0.5 µg) and nano-P2A-CFP (0.5 µg) or enDUBO1-P2A-CFP (0.5 µg) using X-tremeGENE HP (1:2 DNA/reagent ratio) according to the manufacturers’ instructions (Roche).
For potassium channel measurements, whole-cell membrane currents were recorded at room temperature in CHO cells using an EPC-10 patch-clamp amplifier (HEKA Electronics) controlled by the PatchMaster software (HEKA). A coverslip with adherent CHO cells was placed on the glass bottom of a recording chamber (0.7-1 mL in volume) mounted on the stage of an inverted Nikon Eclipse Ti-U microscope. Micropipettes were fashioned from 1.5 mm thin-walled glass and fire-polished. […] Pipette resistance was typically 1.5 MΩ when filled with internal solution. I-V curves were generated from a family of step depolarizations (-40 to +100 mV in 10 mV steps from a holding potential of -80 mV). Currents were sampled at 20 kHz and filtered at 5 kHz. Traces were acquired at a repetition interval of 10 s.

full-length CFTR = molecular target: T1, full-length CFTR (Homo sapiens, UniProt P13569); assay: Flow cytometric FRET binding assay in HEK293 cells; settings: Cerulean-nanobody donor, Venus-CFTR acceptor
T1 construct: expressed in transfected cells; host or cells: HEK293
T1 sequence (P13569 whole entry): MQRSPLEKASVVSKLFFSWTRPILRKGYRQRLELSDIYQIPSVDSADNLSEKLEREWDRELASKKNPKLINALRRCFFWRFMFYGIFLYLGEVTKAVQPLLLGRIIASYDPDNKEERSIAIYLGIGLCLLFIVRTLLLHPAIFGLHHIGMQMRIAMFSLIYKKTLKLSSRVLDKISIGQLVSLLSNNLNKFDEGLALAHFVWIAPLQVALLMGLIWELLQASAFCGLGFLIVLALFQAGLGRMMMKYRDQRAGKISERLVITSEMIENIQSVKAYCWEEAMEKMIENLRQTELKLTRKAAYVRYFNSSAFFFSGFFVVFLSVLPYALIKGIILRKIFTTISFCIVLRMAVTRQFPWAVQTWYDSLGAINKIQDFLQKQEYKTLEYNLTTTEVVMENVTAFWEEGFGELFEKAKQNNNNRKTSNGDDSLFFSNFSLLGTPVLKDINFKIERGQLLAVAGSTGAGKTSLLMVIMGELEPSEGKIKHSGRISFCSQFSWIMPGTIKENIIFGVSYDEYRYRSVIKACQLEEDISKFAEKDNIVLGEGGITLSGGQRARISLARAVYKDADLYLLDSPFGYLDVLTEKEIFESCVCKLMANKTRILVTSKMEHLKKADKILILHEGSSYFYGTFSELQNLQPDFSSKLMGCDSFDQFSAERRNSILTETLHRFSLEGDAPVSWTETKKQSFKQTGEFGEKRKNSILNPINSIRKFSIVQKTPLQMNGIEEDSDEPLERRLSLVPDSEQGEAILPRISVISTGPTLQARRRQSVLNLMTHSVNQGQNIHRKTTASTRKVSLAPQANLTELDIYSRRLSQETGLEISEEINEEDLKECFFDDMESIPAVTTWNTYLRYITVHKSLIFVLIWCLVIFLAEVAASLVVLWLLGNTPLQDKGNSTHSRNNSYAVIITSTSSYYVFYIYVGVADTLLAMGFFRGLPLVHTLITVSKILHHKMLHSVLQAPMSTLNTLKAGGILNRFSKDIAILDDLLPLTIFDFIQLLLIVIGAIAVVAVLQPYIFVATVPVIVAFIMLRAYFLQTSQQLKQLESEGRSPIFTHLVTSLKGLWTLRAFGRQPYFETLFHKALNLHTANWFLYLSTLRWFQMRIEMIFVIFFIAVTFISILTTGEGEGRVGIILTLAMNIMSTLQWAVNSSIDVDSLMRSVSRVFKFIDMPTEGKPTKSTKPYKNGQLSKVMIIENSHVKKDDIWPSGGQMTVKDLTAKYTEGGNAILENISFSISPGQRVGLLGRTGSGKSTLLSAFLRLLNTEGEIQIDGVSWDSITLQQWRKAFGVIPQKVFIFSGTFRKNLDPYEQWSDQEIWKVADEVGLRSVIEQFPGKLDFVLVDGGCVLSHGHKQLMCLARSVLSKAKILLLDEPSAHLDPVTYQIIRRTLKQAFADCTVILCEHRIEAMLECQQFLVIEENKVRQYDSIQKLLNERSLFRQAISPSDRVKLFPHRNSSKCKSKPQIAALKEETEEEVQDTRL
Description: (§1) While GFP-targeted enDUBs provided critical proof-of-concept efficacy for the targeted deubiquitination approach in rescuing different trafficking-deficient recombinant mutant channels, a key next step was to develop nanobodies towards CFTR itself to enable targeting of endogenous channels. Accordingly, we used purified CFTR NBD1 domain (FIG. 4A) as bait to identify binders using a yeast nanobody library surface display approach (McMahon et al. 2018) (FIG. 4B). After several rounds of magnetic-activated cell sorting (MACS) and fluorescence-activated cell sorting (FACS) selection we isolated 14 unique nanobody binders with a range of affinities for NBD1 as reported by an on-yeast binding assay (FIG. 12A; Table 1). […] Binding of nb.E3h to full-length CFTR in cells was confirmed by a flow cytometric fluorescence resonance energy transfer (flow-FRET) assay (FIG. 4C).
FRET binding assays were performed via flow cytometry in live, transfected HEK293 cells as previously described (Lee et al. 2016). […] Cerulean (Cer), Venus (Ven), and FRET signals were analyzed using the following laser / filter set configurations: BV421 (Ex: 405 nm, Em: 450/50), FITC (Ex: 488 nm, Em: 525/50), and BV520 (Ex: 405 nm, Em: 525/50), respectively. […]

CFTR [2] = assay: YFP halide quenching assay in HEK293 cells; format: cell-based, human; settings: HEK293, pilot screen of nanobodies
Description: as §1
Target sequence in this assay (P13569 387-646 limits assumed): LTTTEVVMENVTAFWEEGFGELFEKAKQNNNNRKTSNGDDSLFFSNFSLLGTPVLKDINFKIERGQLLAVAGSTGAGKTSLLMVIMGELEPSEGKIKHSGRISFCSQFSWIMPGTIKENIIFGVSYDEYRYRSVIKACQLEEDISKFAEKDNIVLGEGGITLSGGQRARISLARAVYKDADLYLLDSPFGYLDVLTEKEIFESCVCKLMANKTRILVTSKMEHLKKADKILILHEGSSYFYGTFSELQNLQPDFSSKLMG
A YFP halide quenching plate-reader assay was adapted from previous work (Galietta et al. 2001). […] Baseline YFP readings (Ex: 510 nm, Em: 538 nm) were taken using a SpectraMax M5 plate-reader (Molecular Devices). An equal amount of 2× activation solution, containing iodide, was added to obtain a final concentration (70 mM Nal, 10 µM forskolin, 5 µM VX770), and a time series recording YFP fluorescence was taken every 2 s. […]

For CC(C)(C)c1cc(C(C)(C)C)c(NC(=O)c2c[nH]c3ccccc3c2=O)cc1O [ivacaftor], the “Forskolin-stimulated 4326delTC or N1303K currents after ivacaftor” value (CFTR [1]; enDUB-U21 co-expression + lumacaftor, ivacaftor 5 µM) was “further enhanced” and the “Forskolin-induced 4326delTC and N1303K currents after ivacaftor” value (CFTR [1]; nano-expressing HEK293 cells, lumacaftor pre-incubation, ivacaftor 5 µM) was “further elevated”.

Cc1ccc(NC(=O)C2(c3ccc4c(c3)OC(F)(F)O4)CC2)nc1-c1cccc(C(=O)O)c1 [lumacaftor] was tested, and the “F508del and R560T CFTR surface expression” value (BBS-CFTR-YFP; lumacaftor 24 hrs pre-incubation or enDUB co-expression) was “did not increase F508del and R560T surface expression”, the “Surface trafficking of the other four CFTR mutations (N1303K, Q1412X, 4279insA, 4326delTC)” value (BBS-CFTR-YFP; lumacaftor 24 hrs pre-incubation or enDUB co-expression (enDUB compared to lumacaftor)) was “improved trafficking of the remaining 4 mutations” and the “Forskolin-induced 4326delTC and N1303K currents” value (CFTR [1]; nano-expressing HEK293 cells, lumacaftor pre-incubation) was “relatively small”.

For COc1ccc(-c2csc(NC(=O)[C@H]3CCCCN3S(=O)(=O)c3ccc(C)cc3)n2)cc1 [ML277, (R)-N-(4-(4-methoxyphenyl)thiazol-2-yl)-1-tosylpiperidine-2-carboxamide], the “enDUB-O1-rescued R591H current amplitude” value (KCNQ1; R591H + enDUB-O1, ML277 1 µM) was “markedly increased enDUB-O1-rescued R591H current amplitude to beyond WT KCNQ1 levels” and the “R591H KCNQ1 currents” value (KCNQ1; R591H + nano, 1 µM) was “modestly increased R591H currents”.

B1: nb.E3h: CFTR (NBD1) target nanobody clone, SEQ ID No: 25 (protein)
VHH: QVQLQESGGGLVQAGGSLRLSCAASGTISGSGSMGWYRQAPGKEREFVAAINVGSNTYYADSVKGRFTISRDNAKNTVYLQMNSLKPEDTAVYYCAVRFGYYYRHTYWGQGTQVTVSS
modifications: nanobody
For B1, the “Binding to full-length CFTR in cells (flow-FRET)” value (full-length CFTR) was “confirmed”, the “Performance in halide sensor assay when converted to an enDUB” value (CFTR [2]) was “superior performance” and the “Performance in patch clamp assay when converted to an enDUB” value (CFTR [1]; HEK293) was “superior performance”.

Source: US20230235084A1, “COMPOSITIONS AND METHODS FOR TARGETED PROTEIN STABILIZATION BY REDIRECTING ENDOGENOUS DEUBIQUITINASES” (THE TRUSTEES OF COLUMBIA UNIVERSITY IN THE CITY OF NEW YORK, priority 2020, published 2023)
